Assay results taken from patent US20020123503A1, “Cabergoline pharmaceutical compositions and methods of use thereof” (priority 2000, published 2002).

Test: Chemical stability of cabergoline and its tablets
Format: physicochemical
Conditions: normal wet granulation techniques

degradation of the active ingredient: did degrade
SMILES: C=CCN1C[C@H](C(=O)N(CCCN(C)C)C(=O)NCC)C[C@@H]2c3cccc4[nH]cc(c34)C[C@H]21 [cabergoline, 1((6-allylergolin-8.beta,-yl)-carbony.)-1-(3-(dimethylamino)propyl)-3ethylurea]
